“And” between values parts separate entries of the source, which are not always exact repeats. Equal values may be shown once.
Assays:
T1R1/T1R3 receptor [1] = target: T1, T1R1/T1R3 receptor (Felis catus, UniProt E3UMS2); test: Example 8: agonist screening of transmembrane compounds on T1R1/T1R3 in HEK293 cells; format: cell-based, cat; conditions: for T1R1/T1R3 agonist: transmembrane compound tested at 0.01, 0.1 and 1 mM, HEK293 cells expressing T1R1/T1R3, calcium dye and/or luminescent reporter; for agonist profile assessment: transmembrane compound alone, in words
Protocol: (§1) HEK293 cells that stably express T1R3 and inducibly express T1R1 were exposed to a transmembrane compound. Activation of the T1R1/T1R3 receptor was detected by a change in intracellular calcium levels using a calcium sensitive fluorescent dye and/or a luminescent reporter system. […] A FLIPR® Tetra or a FlexStation® 3 was used for data capture.
Each transmembrane compound was tested at concentrations of 0.01 mM, 0.1 mM, and 1 mM. […] To generate the dose response curves, the transmembrane compound was tested at concentrations of between 0.0001 mM and 1.0 mM in the presence of GMP and Ala.

T1R1/T1R3 receptor [2] = target: T1, T1R1/T1R3 receptor; test: Example 8: PAM screening of transmembrane compounds with GMP and Ala on T1R1/T1R3 in HEK293 cells; format: cell-based, cat; conditions: for T1R1/T1R3 PAM: compound at 0.01, 0.1, 1 mM in combination with GMP+Ala mixtures (T1-T4), PAM if response to the combination is greater than the sum of the responses to compound alone and to GMP+Ala alone; for PAM profile assessment: in the presence of GMP and Alanine, in words
Text: as §1, with “to” for “to a”, “compound alone or in combination with Ala and GMP to activate the umami receptor.” for “compound.”
Dose response curves were generated for each transmembrane compound at concentrations of 0 (buffer only), 0.01, 0.1 and 1 mM, wherein each of the three concentrations of transmembrane compound was tested in combination with 0.03 mM GMP+100 mM Ala (T1); 0.6 mM GMP+10 mM Ala (T2); 0.1 mM GMP+60 mM Ala (T3) and 0.3 mM GMP+60 mM Ala (T4). The T4 mixture was also tested in a 2-fold dilution series (the T4(X) Concentration). In these experiments, the first test concentration was 2× (2 times) the T4 concentration. The subsequent test concentrations were 2-fold dilutions from that (1×, 0.5× etc.). This dilution series was tested with or without the addition of the test compound at a constant 0.3 mM concentration.
Activation of the umami receptor was also determined in the presence of 1 mM GMP+100 mM Ala to generate a “maximum” umami receptor activation level.

T1R1/T1R3 receptor [3] = target: T1, T1R1/T1R3 receptor; test: cell-based; format: cell-based
Text: (§2) HEK293 cells that stably express T1R3 and inducibly express T1R1 were exposed to transmembrane compounds alone or in combination with one or more amino acids and/or one or more nucleotides to activate the umami receptor. Activation of the T1R1/T1R3 receptor was detected by a change in intracellular calcium levels using a calcium sensitive fluorescent dye. Cells that express T1R3 but not T1R1 were used as a control. A FLIPR® Tetra or a FlexStation® 3 was used for data capture.
(§3) In each experiment, serial dilutions of up to 10 mM of the transmembrane compound were added to the T1R1/T1R3-expressing cells.

T1R1/T1R3 receptor [4] = target: T1, T1R1/T1R3 receptor; test: Example 6: activation of T1R1/T1R3 by transmembrane compounds, conducted as in Example 5; format: cell-based; conditions: T1R1/T1R3 EC50, +0.2 mM IMP
Text: as §2, §3

T1R1/T1R3 receptor [5] = target: T1, T1R1/T1R3 receptor; format: cell-based; conditions: threshold in the presence of 0.2 mM IMP; CNBD = Could not be determined
Text: as §2, §3

Row | Structure (SMILES) | T1R1/T1R3 agonist (T1R1/T1R3 receptor [1]) | T1R1/T1R3 PAM (T1R1/T1R3 receptor [2]) | agonist profile assessment (T1R1/T1R3 receptor [1]) | PAM profile assessment (T1R1/T1R3 receptor [2]) | also measured
1 | COC(=O)C(NCc1ccccc1)c1ccccc1 (stereo not shown) [Formula 19, Methyl-2-benzylamino-2-phenylacetate] | Yes | Yes |  |  | 
2 | Cl.N[C@@H](Cc1ccccc1)C(=O)OCc1ccccc1 [Formula 20, L-Phenylalanine benzyl ester hydrochloride] | Yes | Yes |  |  | 
3 | N[C@@H](Cc1ccc(O)cc1)C(=O)OCc1ccccc1 [Formula 21, L-Tyrosine benzyl ester] | No | No |  |  | 
4 | O=C(O)[C@H](Cc1ccc(O)cc1)NCc1ccccc1 [Formula 22, N-Benzyl-L-Tyrosine] | No | No |  |  | 
5 | Cc1ccc(CNC(Cc2ccccc2)C(=O)O)cc1 (stereo not shown) [Formula 23, 2-((4-methylbenzyl)amino)-3-phenylpropanoic acid] | No | No |  |  | 
6 | O=C1CC(=O)N(Cc2ccccc2)C(=O)N1Cc1ccccc1 [Formula 24, 1,3-dibenzylpyrimidine-2,4,6(1H,3H,5H)-trione] | Yes | No |  |  | 
7 | Cl.N[C@@H](Cc1ccccc1)C(=O)OCc1ccccc1 [L-Phenylalanine benzyl ester hydrochloride] |  |  | agonist | PAM activity | 
8 | COC(=O)C(NCc1ccccc1)c1ccccc1 (stereo not shown) [Methyl-2-benzylamino-2-phenylacetate] |  |  | agonist | PAM activity | 
9 | CCCC(CCC)NC(=O)c1ccc2c(c1)OCO2 [N-(heptan-4-yl)benzo[d][1,3]dioxole-5-carboxamide] |  |  | agonist | PAM activity | Max resp ΔF/F +IMP (0.2 mM) (T1R1/T1R3 receptor [3]; in the presence of 0.2 mM IMP): 1.4725 and 1.393 and 1.473; Max resp % of Ala +IMP (0.2 mM) (T1R1/T1R3 receptor [3]; in the presence of 0.2 mM IMP, relative to Ala): 165.8% and 119.6%; Max resp ΔF/F +Alanine (20 mM) (T1R1/T1R3 receptor [3]; in the presence of 20 mM alanine): 1.7725 and 1.2; Max resp % of IMP +Alanine (20 mM) (T1R1/T1R3 receptor [3]; in the presence of 20 mM alanine, relative to IMP): 118.2% and 142.7%
10 | COC(=O)[C@@H](Cc1ccccc1)NCc1ccccc1.Cl [N-Benzyl-D-Phenylalanine methyl ester hydrochloride] |  |  | agonist | PAM activity | 
11 | COC(=O)[C@H](Cc1ccccc1)NCc1ccccc1 [N-Benzyl-L-phenylalanine methyl ester] |  |  | agonist | PAM activity | EC50 (T1R1/T1R3 receptor [4]): 20 ± 1 µM; Thres +IMP (0.2 mM) (T1R1/T1R3 receptor [5]): 0.003 mM
